Values quoted from earlier work in article PMC3127977, “No relevant cardiac, pharmacokinetic or safety interactions between roflumilast and inhaled formoterol in healthy subjects: an open-label, randomised, actively controlled study” (BMC Clinical Pharmacology, 2011).
Where two headings read alike, the source gives them in different places.

Conditions: cited from earlier work
[1] = CYP3A4 inhibitors co-administered with roflumilast

Row | Structure (SMILES) | increase of tPDE4i (CYP1A2 or dual CYP3A4/1A2 inhibitor co-administered with roflumilast) | increase of tPDE4i [1]
1 | CCn1cc(C(=O)O)c(=O)c2cc(F)c(N3CCNCC3)nc21 [enoxacin] | 25% | –
2 | CC[C@H]1OC(=O)[C@H](C)[C@@H](O[C@H]2C[C@@](C)(OC)[C@@H](O)[C@H](C)O2)[C@H](C)[C@@H](O[C@@H]2O[C@H](C)C[C@H](N(C)C)[C@H]2O)[C@](C)(O)C[C@@H](C)C(=O)[C@H](C)[C@@H](O)[C@]1(C)O [erythromycin] | – | 8-9%
3 | CC(=O)N1CCN(c2ccc(OCC3COC(Cn4ccnc4)(c4ccc(Cl)cc4Cl)O3)cc2)CC1 (stereo not drawn) [ketoconazole] | – | 8-9%
